The text below walks through data of patent US20220072089A1, “CANCER THERAPEUTIC COMPOSITIONS AND METHODS” (University of Vermont and State Agricultural College, priority 2018, published 2022).

Assay [1] concerns patients with myelodysplatic syndrome. Particulars: 50-600 mg/m^2 IV over 60 minutes; cited from earlier work.
The subject of a further assay is MM cells. Description: Combinations administered to subjects with malignant mesothelioma, Example 8. It counts as in vivo. On the procedure: Subjects with malignant mesothelioma (MM) are administered (1) thiostrepton (TS) and TLK-199, (2) TS, gentian violet (GV), and TLK or (3) GV and TLK-199.
The test system of assay [2] is Malignant mesothelioma (MM) cells. Description: Malignant mesothelioma cell viability (cell number), Example 1. Type of assay: cell-based. To be noted: Homo sapiens. How it is done: Malignant mesothelioma (MM) cells were incubated with increasing concentrations of TS (0-10 μM) and TLK-199 (0-200 μM) for 48 hours and then assayed for cell number (viability).
The next assay concerns the target T1, peroxiredoxin 3 (PRX3) (Homo sapiens, UniProt P30048).
T1 construct: endogenous in cells
T1 sequence (P30048 62-256): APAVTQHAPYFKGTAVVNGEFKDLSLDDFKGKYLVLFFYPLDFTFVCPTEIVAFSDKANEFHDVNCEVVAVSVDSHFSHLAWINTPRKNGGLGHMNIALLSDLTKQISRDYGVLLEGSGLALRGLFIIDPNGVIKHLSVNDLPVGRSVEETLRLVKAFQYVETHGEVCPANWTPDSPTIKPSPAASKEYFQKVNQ
Description: Covalent adduction of PRX3 in MM cells (reducing SDS-PAGE, western blot), Example 7. Type of assay: cell-based. Particulars: 0, 2, 4 μM TS alone or with 30 μM TLK-199, 24 hours, FIG. 4. On the procedure: Malignant mesothelioma (MM) cells were incubated with 0, 2,and 4 μM Thiostrepton (TS) alone or in the presence of 30 μM TLK-199 for 24 hours. Cell lysates were collected, and proteins were separated by reducing SDS-Polyacrylamide Gel Electrophoresis.
(In general: In western blotting, separated proteins are transferred to a membrane and probed.)

The mark [3] stands for this setting: single agent, malignant mesothelioma cells, 48 hours, read-out: inhibitory concentration required to kill 50% of cells (IC50).

Read-outs that look alike come from different tables or passages of the source.

Take `CCOC(=O)[C@@H](NC(=O)[C@H](CSCc1ccccc1)NC(=O)CC[C@H](N)C(=O)OCC)c1ccccc1` [TLK-199, (S)-ethyl 2-amino-5-(((R)-3-(benzylthio)-1-(((S)-2-ethoxy-2-oxo-1-phenylethyl)amino)-1-oxopropan-2-yl)amino)-5-oxopentanoate]: in assay [1], the “bone marrow maturation and cellularity” value is “Improvement in bone marrow maturation and cellularity”; the clinical symptoms entry was “improvement in clinical symptoms”; the transfusion requirements entry is reported as “reductions in transfusion requirements”. In addition, the “effect of including TLK-199 on reduction in viability of MM cells” value in the assay on MM cells is “synergistic effect”. Further, in assay [2] (setting [3]), the IC50 worked out at 45000 nM.
Take `C=C(NC(=O)C(=C)NC(=O)c1csc(C2=N[C@@H]3c4csc(n4)[C@H]4NC(=O)c5csc(n5)[C@H]([C@](C)(O)[C@@H](C)O)NC(=O)[C@H]5CSC(=N5)/C(=C/C)NC(=O)[C@H]([C@@H](C)O)NC(=O)c5csc(n5)[C@]3(CC2)NC(=O)[C@H](C)NC(=O)C(=C)NC(=O)[C@H](C)NC(=O)[C@H]([C@@H](C)CC)N[C@@H]2C=Cc3c([C@H](C)O)cc(nc3[C@H]2O)C(=O)O[C@@H]4C)n1)C(N)=O` [TS, Thiostrepton]: the IC50 in assay [2] (48 h, read-out: inhibitory concentration required to kill 50% of cells (IC50)) was approximately 1500 nM; in assay [2] (read-out: calculated IC50), 900 to 2400 nM. Also, the “covalent adduction of PRX3 (PRX3 dimer:monomer ratio)” value at peroxiredoxin 3 (PRX3) is recorded as “PRX3 monomers were covalently crosslinked”.
As for `CN(C)c1ccc(C(=C2C=CC(=[N+](C)C)C=C2)c2ccc(N(C)C)cc2)cc1` [GV, Gentian violet], in assay [2] (setting [3]), the IC50 was 150 nM.
